# Tests used:
# Assay type in all cases: cell-based
# A549 (NSCLC) = test: Anti-proliferative activity (Cell-Titre luminescence) against A549 non-small cell lung cancer cells; conditions: 72 h exposure, Cell-Titre luminescent reagent
# Description: (§1) The ability of compounds of the invention to inhibit the proliferation of cancer cells representative of non-small cell lung cancer and ovarian cancer (Table 2), pancreatic cancer, colorectal cancer and prostate cancer (Table 3) was assessed. Briefly, a predetermined number of cells as calculated from cell growth assays for each of the cell lines employed were seeded into their respective culture medium (using ATCC culture parameters—http://www.atcc.org) and cultured for 24 h at 37° C. and 5% CO2 in 96-well culture plates. Once attached, each cell line was then exposed to various concentrations of each respective analogue (30, 10, 3, 1, 0.3 and 0.1 μM), cultured for a further 72 h and exposed to Cell-Titre luminescent reagent (100 μL/well) for a further 30 min. Luminescence was captured using an EnVision multilabel reader and the data for each analogue concentration compared against no treatment control. Cell viability was normalised to control (vehicle alone) and dose response curves, and half maximal effective concentration (EC50) values were determined using Graph Pad Prism 6 (nonlinear regression sigmoidal dose-response variable slope).
# [1] = tested on: SK-N-SH neuroblastoma cells; test: Anti-proliferative activity (MTS assay) against SK-N-SH neuroblastoma cells; conditions: Homo sapiens, SK-N-SH, 72 h
# Description: The ability of compounds of the disclosure to inhibit the proliferation of SK-N-SH neuroblastoma cells was also assessed. […] Cell viability was normalised to control (vehicle alone) and dose response curves and IC50 values (Table 4) were determined using Graph Pad Prism 6.
# A2780 (ovarian) = test: Anti-proliferative activity (Cell-Titre luminescence) against A2780 ovarian cancer cells; conditions: 72 h exposure, Cell-Titre luminescent reagent
# Description: as §1
"IC50 (A549 (NSCLC); Homo sapiens, A549, 72 h)",IC50 [1],"IC50 (A2780 (ovarian); Homo sapiens, A2780, 72 h)",IC50 (A549 (NSCLC)),IC50 (A2780 (ovarian)),Compound
4 µM,2.87 µM,3.33 µM,,,"COc1ccc(Nc2nc(NCCc3c[nH]cn3)c3ccccc3n2)cc1 [Compound 80, N^4-(2-(1H-imidazol-4-yl)ethyl)-N^2-(4-methoxyphenyl)quinazoline-2,4-diamine]"
9.48 µM,,3.01 µM,,,"CN1CCN(CCNc2nc(NCCc3ccc4c(c3)OCO4)nc3ccccc23)CC1 [Compound 143, N^2-(2-(benzo[d][1,3]dioxol-5-yl)ethyl)-N^4-(2-(4-methylpiperazin-1-yl)ethyl)quinazoline-2,4-diamine]"
5.92 µM,,8.89 µM,,,"CC(C)C(CNc1nc(-c2cccs2)nc2ccccc12)N1CCN(C)CC1 (stereo not shown) [Compound 3, N-(3-methyl-2-(4-methylpiperazin-1-yl)butyl)-2-(thiophen-2-yl)quinazolin-4-amine]"
24.1 µM,,9.05 µM,,,"c1ccc2c(NCCc3c[nH]cn3)nc(-c3ccsc3)nc2c1 [Compound 105, N-(2-(1H-imidazol-4-yl)ethyl)-2-(thiophen-3-yl)quinazolin-4-amine]"
3.51 µM,,5.04 µM,,,OCCNc1nc(Nc2ccccc2O)nc2ccccc12 [Compound 149]
8.03 µM,,4.71 µM,,,"CN1CCN(CCNc2nc(NCCc3ccc(O)cc3)nc3ccccc23)CC1 [Compound 132, N^2-(4-hydroxyphenethyl)-N^4-(2-(4-methylpiperazin-1-yl)ethyl)quinazoline-2,4-diamine]"
> 30 µM,,> 30 µM,,,"OCCNc1nc(-c2cccs2)nc2ccccc12 [Compound 18, 2-((2-(thiophen-2-yl)quinazolin-4-yl)amino)ethan-1-ol]"
5.85 µM,,6.22 µM,,,"CN1CCN(CCNc2nc(NCCc3cccc(F)c3)nc3ccccc23)CC1 [Compound 58, N^2-(3-fluorophenethyl)-N^4-(2-(4-methylpiperazin-1-yl)ethyl)quinazoline-2,4-diamine]"
3.18 µM,,2.81 µM,,,"CN1CCN(CCNc2nc(NCCc3cccs3)nc3ccccc23)CC1 [Compound 147, N^4-(2-(4-methylpiperazin-1-yl)ethyl)-N^2-(2-(thiophen-2-yl)ethyl)quinazoline-2,4-diamine]"
7.41 µM,,5.81 µM,,,"CN1CCN(CCNc2nc(SCCc3cccc(C(F)(F)F)c3)nc3ccccc23)CC1 [Compound 151, N-(2-(4-methylpiperazin-1-yl)ethyl)-2-((3-(trifluoromethyl)phenethyl)thio)quinazolin-4-amine]"
> 30 µM,,22.7 µM,,,"CN1CCN(CCNc2nc(-n3cccc3)nc3ccccc23)CC1 [Compound 17, N-(2-(4-methylpiperazin-1-yl)ethyl)-2-(1H-pyrrol-1-yl)quinazolin-4-amine]"
21 µM,,8.95 µM,,,"COc1cccc(CNc2nc(NCCO)c3ccccc3n2)c1 [Compound 33, 2-((2-((3-methoxybenzyl)amino)quinazolin-4-yl)amino)ethan-1-ol]"
> 30 µM,,> 30 µM,,,"OCCNc1nc(-c2ccco2)nc2ccccc12 [Compound 22, 2-((2-(furan-2-yl)quinazolin-4-yl)amino)ethan-1-ol]"
> 30 µM,,> 30 µM,,,"CN1CCN(CCNc2nc(-c3cccs3)nc3ccccc23)CC1 [Compound 10, N-(2-(4-methylpiperazin-1-yl)ethyl)-2-(thiophen-2-yl)quinazolin-4-amine]"
8.56 µM,,8.3 µM,,,"CC(C)C(CNc1nc(-c2ccc[nH]2)nc2ccccc12)N1CCN(C)CC1 (stereo not shown) [Compound 4, N-(3-methyl-2-(4-methylpiperazin-1-yl)butyl)-2-(1H-pyrrol-2-yl)quinazolin-4-amine]"
10.9 µM,,2.88 µM,,,"CN1CCN(CCNc2nc(NCCc3ccc(Cl)cc3)nc3ccccc23)CC1 [Compound 130, N^2-(4-chlorophenethyl)-N^4-(2-(4-methylpiperazin-1-yl)ethyl)quinazoline-2,4-diamine]"
4.77 µM,,1.03 µM,,,"CN1CCN(CCNc2nc(NCCc3ccc(F)c(F)c3)nc3ccccc23)CC1 [Compound 136, N^2-(3,4-difluorophenethyl)-N^4-(2-(4-methylpiperazin-1-yl)ethyl)quinazoline-2,4-diamine]"
11.5 µM,,3 µM,,,"CN1CCN(CCNc2nc(NCCc3ccc(C#N)cc3)nc3ccccc23)CC1 [Compound 131, 4-(2-((4-((2-(4-methylpiperazin-1-yl)ethyl)amino)quinazolin-2-yl)amino)ethyl)benzonitrile]"

"IC50 (A549 (NSCLC); Homo sapiens, A549, 72 h)",IC50 [1],"IC50 (A2780 (ovarian); Homo sapiens, A2780, 72 h)",IC50 (A549 (NSCLC)),IC50 (A2780 (ovarian)),Compound
> 30 µM,,13.7 µM,,,"CCc1ccc(CCNc2nc(NCCN(C)C)c3ccccc3n2)cc1 [Compound 66, N^4-(2-(dimethylamino)ethyl)-N^2-(4-ethylphenethyl)quinazoline-2,4-diamine]"
> 30 µM,,> 30 µM,,,"OCCNc1nc(-c2cc[nH]c2)nc2ccccc12 [Compound 21, 2-((2-(1H-pyrrol-3-yl)quinazolin-4-yl)amino)ethan-1-ol]"
5.6 µM,,1.19 µM,,,"CN1CCN(CCNc2nc(NCCc3ccc(C(F)(F)F)cc3)nc3ccccc23)CC1 [Compound 52, N^4-(2-(4-methylpiperazin-1-yl)ethyl)-N^2-(4-(trifluoromethyl)phenethyl)quinazoline-2,4-diamine]"
,,,6.09 µM,1.03 µM,"N^2-(3-methoxyphenyl)-N^4-(2-(4-methylpiperazin-1-yl)ethyl)quinazoline-2,4-diamine [Compound 43]"
> 30 µM,,> 30 µM,,,"CN1CCN(CCNc2nc(-c3ccoc3)nc3ccccc23)CC1 [Compound 15, 2-(furan-3-yl)-N-(2-(4-methylpiperazin-1-yl)ethyl)quinazolin-4-amine]"
3.3 µM,,1.22 µM,,,"CN1CCN(CCNc2nc(NCCc3cc(F)c(F)c(F)c3)nc3ccccc23)CC1 [Compound 141, N^4-(2-(4-methylpiperazin-1-yl)ethyl)-N^2-(3,4,5-trifluorophenethyl)quinazoline-2,4-diamine]"
2.84 µM,,6.74 µM,,,"OCCNc1nc(Nc2cccc(C(F)(F)F)c2)nc2ccccc12 [Compound 27, 2-((2-((3-(trifluoromethyl)phenyl)amino)quinazolin-4-yl)amino)ethan-1-ol]"
3.7 µM,,5.54 µM,,,"CN1CCN(CCNc2nc(NCCc3ccc(F)cc3)nc3ccccc23)CC1 [Compound 59, N^2-(4-fluorophenethyl)-N^4-(2-(4-methylpiperazin-1-yl)ethyl)quinazoline-2,4-diamine]"
15.7 µM,,14.1 µM,,,"CN1CCN(CCNc2nc(NCCc3ccncc3)nc3ccccc23)CC1 [Compound 146, N^4-(2-(4-methylpiperazin-1-yl)ethyl)-N^2-(2-(pyridin-4-yl)ethyl)quinazoline-2,4-diamine]"
6.07 µM,,1.1 µM,,,"CN1CCN(CCNc2nc(NCCc3cc(F)cc(F)c3)nc3ccccc23)CC1 [Compound 138, N^2-(3,5-difluorophenethyl)-N^4-(2-(4-methylpiperazin-1-yl)ethyl)quinazoline-2,4-diamine]"
> 30 µM,,7.77 µM,,,"CN1CCN(CCNc2nc(NCCc3ccco3)nc3ccccc23)CC1 [Compound 148, N^2-(2-(furan-2-yl)ethyl)-N^4-(2-(4-methylpiperazin-1-yl)ethyl)quinazoline-2,4-diamine]"
2.54 µM,,2.62 µM,,,"Cc1ccc(CCNc2nc(NCCN3CCN(C)CC3)c3ccccc3n2)cc1 [Compound 127, N^2-(4-methylphenethyl)-N^4-(2-(4-methylpiperazin-1-yl)ethyl)quinazoline-2,4-diamine]"
3.04 µM,,2.34 µM,,,"CN1CCN(CCNc2nc(NCc3cccc(C(F)(F)F)c3)nc3ccccc23)CC1 [Compound 46, N^4-(2-(4-methylpiperazin-1-yl)ethyl)-N^2-(3-(trifluoromethyl)benzyl)quinazoline-2,4-diamine]"
10.2 µM,,10.8 µM,,,"CC(C)C(CNc1nc(-c2ccoc2)nc2ccccc12)N1CCN(C)CC1 (stereo not shown) [Compound 7, 2-(furan-3-yl)-N-(3-methyl-2-(4-methylpiperazin-1-yl)butyl)quinazolin-4-amine]"
16.5 µM,,12.2 µM,,,"CN1CCN(CCNc2nc(OCCc3cccc(C(F)(F)F)c3)nc3ccccc23)CC1 [Compound 150, N-(2-(4-methylpiperazin-1-yl)ethyl)-2-(3-(trifluoromethyl)phenethoxy)quinazolin-4-amine]"
> 30 µM,,> 30 µM,,,"CC(C)C(CNc1nc(-c2ccco2)nc2ccccc12)N1CCN(C)CC1 (stereo not shown) [Compound 6, 2-(furan-2-yl)-N-(3-methyl-2-(4-methylpiperazin-1-yl)butyl)quinazolin-4-amine]"
> 30 µM,,10.9 µM,,,"CN1CCN(CCNc2nc(NCCc3cccnc3)nc3ccccc23)CC1 [Compound 145, N^4-(2-(4-methylpiperazin-1-yl)ethyl)-N^2-(2-(pyridin-3-yl)ethyl)quinazoline-2,4-diamine]"
4.94 µM,,1.69 µM,,,"CN1CCN(CCNc2nc(Nc3ccc(C(F)(F)F)cc3)nc3ccccc23)CC1 [Compound 42, N^4-(2-(4-methylpiperazin-1-yl)ethyl)-N^2-(4-(trifluoromethyl)phenyl)quinazoline-2,4-diamine]"

# Source: patent US20230339866A1, “Quinazoline compounds and the use thereof in the treatment of cancer” (TROBIO THERAPEUTICS PTY LTD, priority 2020, published 2023)
